# Measured values taken from patent US12378206B2, “Heteroaryl butanoic acid derivatives” (NOVARTIS AG, priority 2013, dated 2025).
# Where two headings read alike, the source gives them in different places.
# How the values were obtained:
# [1] = tested on: LTB4 biosynthesis in human whole blood; assay: Human whole blood assay (hWB): inhibition of LTB4 biosynthesis after A23187 stimulation, ELISA; assay type: cell-based
# Procedure: Compounds are tested in a human whole blood assay (hWB) to test their ability to inhibit LTB4 biosynthesis in a human cellular system. To this end, fresh blood is collected in heparinized vacutainers by venipuncture from volunteers. Blood is diluted 1:3 with RPMI (Roswell Park Memorial Institute) medium and aliquots of 200 μL are transferred to 96-well round bottom cell culture plates. For compound testing, compounds are delivered as 10 mM stock solutions in 90% DMSO in matrix tubes. […] 4 μL of compound dilution or vehicle is added to 200 μL of blood and incubated for 15 min at 37° C. in a humidified incubator. Then blood is stimulated with 10 μg/ml calcium ionophore A23187 (Sigma) or equal volume DMSO (control) and incubated for an additional 15 min at 37° C. in a humidified incubator. Incubation is terminated by centrifugation at 300 g for 10 min at 22° C. Plasma supernatant is taken and transferred to a 96 well plate for eicosanoid determination by ELISA (Assay designs) according to the manufacturer's protocol after 1:20 dilution in assay buffer. The data is analyzed in GraphPad Prism (GraphPad software Inc.) using non-linear regression to determine IC50 values of LTA4H inhibitors.
# human LTA4H = molecular target: T1, human LTA4H (Homo sapiens, UniProt P09960); assay: Human LTA4H enzyme assay (Arg-AMC surrogate substrate, fluorescence); assay type: biochemical; details: read-out: ArgAMC IC50
# T1 sequence (P09960 1-611): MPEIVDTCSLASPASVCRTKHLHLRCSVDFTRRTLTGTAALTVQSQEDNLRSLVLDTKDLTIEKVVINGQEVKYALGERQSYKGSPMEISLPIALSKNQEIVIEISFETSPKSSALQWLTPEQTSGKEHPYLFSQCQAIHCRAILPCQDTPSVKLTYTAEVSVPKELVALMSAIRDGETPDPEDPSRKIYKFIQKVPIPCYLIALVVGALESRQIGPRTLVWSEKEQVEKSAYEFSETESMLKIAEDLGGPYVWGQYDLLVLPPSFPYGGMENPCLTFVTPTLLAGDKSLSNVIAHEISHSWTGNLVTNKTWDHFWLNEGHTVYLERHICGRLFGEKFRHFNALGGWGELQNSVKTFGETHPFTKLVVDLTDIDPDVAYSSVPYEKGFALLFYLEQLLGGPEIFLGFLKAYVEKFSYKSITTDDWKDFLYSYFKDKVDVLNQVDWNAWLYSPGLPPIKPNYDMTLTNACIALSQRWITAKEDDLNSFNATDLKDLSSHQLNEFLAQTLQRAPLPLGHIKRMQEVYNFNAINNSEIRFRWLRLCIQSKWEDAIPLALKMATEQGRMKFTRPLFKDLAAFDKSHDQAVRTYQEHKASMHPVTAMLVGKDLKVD
# Procedure: Leukotriene A4 hydrolase (LTA4H) catalyzes the vinylogous hydrolysis of the epoxide, leukotriene A4 (LTA4) into the pro-inflammatory mediator LTB4.
# For compound testing, compounds are delivered as 10 mM stock solutions in 90% DMSO (10% water) in matrix tubes. […] The enzyme compound mixture is incubated at room temperature for 15 minutes prior to the addition of 50 μL substrate solution. A final substrate concentration of 600 μM, which is around the KM value of Arg-AMC, at a final enzyme concentration of 9 nM is chosen. Upon addition of the substrate, the plate is immediately placed in a fluorescence reader and the fluorescence is measured every 10 minutes for 60 minutes using the filter setting λexcitation=380 nm and λemission=460 nm. […] Raw data is converted to rate (moles per minute) using the AMC calibration curve calculated from the AMC standards. The data is analyzed in GraphPad Prism (GraphPad software Inc.) using non-linear regression to determine IC50 values of LTA4H inhibitors.
# LTB4 release = assay: Murine PD assay: ex vivo A23187-stimulated LTB4 release in blood after p.o. dosing; set-up: species or system female C57BL/6 mice; details: Mus musculus, po, read-out: PD effect [%] inhibition of LTB4 release
# Procedure: LTA4H inhibitor compounds or vehicle control (30% PEG200 (70%), 5% Glucose) is applied per os (p.o.) in a dose of 0.3 mg/kg to female C57BL/6 mice (Charles River France). Three hours after application of compound, mice are terminally bled and blood is collected in heparinized tubes. Collected blood is diluted 1:3 in RPMI medium, added in 96-well round bottom cell culture plates and incubated with 10 μg/ml calcium ionophore A23187 (Sigma) or equal volume DMSO (control) for 15 min at 37° C. in a humidified incubator. Incubation is terminated by centrifugation at 300 g for 10 min at 22° C. Plasma supernatant is taken, diluted 1:10 in assay buffer and transferred to a 96 well plate for eicosanoid determination by ELISA (Assay designs) according to the manufacturer's protocol.
# [2] = human whole blood diluted 1:3, 10 μg/ml calcium ionophore A23187, LTB4 by ELISA, read-out: hWB IC50
# [3] = 0.3 mg/kg p.o., female C57BL/6 mice, blood taken 3 hours after application, ex vivo A23187 stimulation, versus vehicle control
# [4] = Homo sapiens, read-out: hWB IC50 (nM)
SMILES,"IC50 [1, 2]",IC50 (human LTA4H),inhibition at 0.3 mg/kg (LTB4 release; [3]),"IC50 [1, 4]",inhibition at 0.3 mg/kg (LTB4 release; 3 h)
"N[C@H](CC(=O)O)Cn1nnc(-c2cccc(Oc3ccc(Cl)cc3)c2)n1 [Example 5, (R)-3-amino-4-(5-(3-(4-chlorophenoxy)phenyl)-2H-tetrazol-2-yl)butanoic acid]",396 nM,3 nM,–,–,–
"N[C@H](CC(=O)O)Cn1nnc(-c2ccc(Oc3ccc(F)c(Cl)c3)cc2)n1 [Example 8, (R)-3-amino-4-(5-(4-(3-chloro-4-fluorophenoxy)phenyl)-2H-tetrazol-2-yl)butanoic acid]",282 nM,3 nM,–,–,–
"Cc1ccc(Oc2ccc(-c3nnn(C[C@H](N)CC(=O)O)n3)cc2)cc1 [Example 9, (R)-3-amino-4-(5-(4-(p-tolyloxy)phenyl)-2H-tetrazol-2-yl)butanoic acid]",402 nM,≤ 2 nM,–,–,–
"N[C@@H](CC(=O)O)Cn1nnc(-c2cccc(Oc3ccccc3)c2)n1 [Example 10, (S)-3-amino-4-(5-(3-phenoxyphenyl)-2H-tetrazol-2-yl)butanoic acid]",214 nM,4 nM,–,–,–
"N[C@H](CC(=O)O)Cn1nnc(-c2cccc(OCCc3ccccc3)c2)n1 [Example 13, (R)-3-amino-4-(5-(3-phenethoxyphenyl)-2H-tetrazol-2-yl)butanoic acid]",86 nM,≤ 2 nM,55%,–,–
"N[C@H](CC(=O)O)Cn1nnc(-c2ccc(OCc3ccccc3)cc2)n1 [Example 15, (R)-3-amino-4-(5-(4-(benzyloxy)phenyl)-2H-tetrazol-2-yl)butanoic acid]",–,≤ 2 nM,–,81 nM,49%
"N[C@H](CC(=O)O)Cn1nnc(-c2cccc(OCc3ccccc3)c2)n1 [Example 16, (R)-3-amino-4-(5-(3-(benzyloxy)phenyl)-2H-tetrazol-2-yl)butanoic acid]",–,3 nM,–,165 nM,9%
"CCCCOc1ccc(-c2nnn(C[C@H](N)CC(=O)O)n2)cc1 [Example 17, (R)-3-amino-4-(5-(4-butoxyphenyl)-2H-tetrazol-2-yl)butanoic acid]",–,4 nM,–,183 nM,47%
"N[C@H](CC(=O)O)Cn1nnc(-c2cccc(Oc3ccc(C(F)(F)F)cn3)c2)n1 [Example 19, (R)-3-amino-4-(5-(3-((5-(trifluoromethyl)pyridin-2-yl)oxy)phenyl)-2H-tetrazol-2-yl)butanoic acid]",–,3 nM,–,273 nM,–
"N[C@H](CC(=O)O)Cn1nnc(-c2ccc(Oc3ccc(C(F)(F)F)cn3)cc2)n1 [Example 20, (R)-3-amino-4-(5-(4-((5-(trifluoromethyl)pyridin-2-yl)oxy)phenyl)-2H-tetrazol-2-yl)butanoic acid]",270 nM,5 nM,–,–,–
"N[C@H](CC(=O)O)Cn1nnc(-c2cccc(Oc3nc4ccccc4s3)c2)n1 [Example 21, (R)-3-amino-4-(5-(3-(benzo[d]thiazol-2-yloxy)phenyl)-2H-tetrazol-2-yl)butanoic acid]",209 nM,5 nM,–,–,–
"N[C@H](CC(=O)O)Cn1nnc(-c2cccc(Oc3cc(F)cc(F)c3)c2)n1 [Example 22, (R)-3-amino-4-(5-(3-(3,5-difluorophenoxy)phenyl)-2H-tetrazol-2-yl)butanoic acid]",294 nM,8 nM,–,–,–
"Cc1ccc(Oc2ccc(-c3nnn(C[C@@H](N)CC(=O)O)n3)cc2)cc1 [Example 23, (S)-3-amino-4-(5-(4-(p-tolyloxy)phenyl)-2H-tetrazol-2-yl)butanoic acid]",173 nM,≤ 2 nM,44%,–,–
"N[C@@H](CC(=O)O)Cc1nnc(-c2ccc(Oc3ccc(F)cc3)cc2)o1 [Example 24, (R)-3-amino-4-(5-(4-(4-fluorophenoxy)phenyl)-1,3,4-oxadiazol-2-yl)butanoic acid]",282 nM,3 nM,–,–,–
"N[C@@H](CC(=O)O)Cc1nnc(-c2ccc(Oc3ccc(Cl)cc3)cc2)o1 [Example 25, (R)-3-amino-4-(5-(4-(4-chlorophenoxy)phenyl)-1,3,4-oxadiazol-2-yl)butanoic acid]",382 nM,3 nM,–,–,–
"N[C@@H](CC(=O)O)Cc1nc(-c2ccc(Oc3ccc(Cl)cc3)cc2)no1 [Example 26, (R)-3-amino-4-(3-(4-(4-chlorophenoxy)phenyl)-1,2,4-oxadiazol-5-yl)butanoic acid]",126 nM,3 nM,–,–,–
"NC(=O)C[C@H](N)Cc1nc(-c2ccc(Oc3ccc(Cl)cc3)cc2)no1 [Example 27, (R)-3-amino-4-(3-(4-(4-chlorophenoxy)phenyl)-1,2,4-oxadiazol-5-yl)butanamide]",218 nM,10 nM,–,–,–
"N[C@@H](CC(=O)O)Cn1cc(-c2ccc(Oc3ccc(Cl)cc3)cc2)cn1 [Example 28, (S)-3-amino-4-(4-(4-(4-chlorophenoxy)phenyl)-1H-pyrazol-1-yl)butanoic acid]",728 nM,3 nM,–,–,–
